Assay results reported in paper PMC5508548 (Bioorganic & medicinal chemistry letters, 2017).
One block for each molecule: values may come before it.

Key:
In vitro clearance, rat = assay type: in vitro ADME; settings: for CLHEP, rat: in vitro predicted, well-stirred equation without fuplasma/fumic terms; for CLHEP, rat / CLint scaled: rat; for CLint scaled: liver microsomes
[1] = In vitro clearance, human; assay type: in vitro ADME; settings: for CLHEP, human: in vitro predicted; for CLint scaled: liver microsomes
CYP450s (panel) = experiment: CYP450 inhibition profile; assay type: in vitro ADME
[2] = IV pharmacokinetics in SD rat; assay type: in vivo; settings: Sprague-Dawley, plasma
cyno M4 = cyno M4 (Macaca fascicularis, UniProt G7PQB4); experiment: ACh CRC fold-shift Ca2+ mobilization and ACh competition binding; assay type: cell-based, cynomolgus monkey; settings: operational model cooperativity; n=3–4
rat M1-3,5 = experiment: Muscarinic subtype selectivity, rat M1-3,5; assay type: cell-based; settings: read-out: EC50 at rat M1-3,5
human M1-3,5 = experiment: Muscarinic subtype selectivity, human M1-3,5; assay type: cell-based; settings: read-out: EC50 at human M1-3,5
dog M2 = experiment: Muscarinic subtype selectivity, dog M2; assay type: cell-based; settings: data not shown
cyno M2 = experiment: Muscarinic subtype selectivity, cyno M2; assay type: cell-based, cynomolgus monkey; settings: data not shown
GABAA receptor = experiment: GABAA functional assay; assay type: biochemical; settings: at 10 μM
TA98 and TA100 strains = experiment: Mini-Ames assay; settings: TA98 and TA100 strains ± S9
CYP 1A2/2B6/3A4 = experiment: CYP induction in cryopreserved human hepatocytes; assay type: in vitro ADME; settings: 48 hr incubation, enzyme activity readout
CYP1A2, CYP2B6, CYP3A4 = experiment: CYP induction in cryopreserved human hepatocytes; assay type: in vitro ADME; settings: human
[3] = Oral pharmacokinetics in rat; assay type: in vivo
[4] = IV and PO pharmacokinetics in dog; assay type: in vivo
[5] = IV and PO pharmacokinetics in cynomolgus monkey; assay type: in vivo
[6] = In vitro metabolite identification in cryopreserved hepatocytes; assay type: in vitro ADME, rat, dog, cynomolgus monkey, human
CYP450 = experiment: Human CYP450 phenotyping; assay type: in vitro ADME
[7] = Reactive metabolism/bioactivation; assay type: in vitro ADME; settings: human hepatic microsomes
[8] = tested on: L-DOPA-induced dyskinesia; settings: NHPs, 10 mg/kg IV; cited from earlier work
[9] = tested on: L-DOPA-induced dyskinesia; settings: PD-LID mice and NHPs; cited from earlier work

CLHEP, rat (In vitro clearance, rat): 59.9 mL/min/kg
CLint scaled (In vitro clearance, rat): 415 mL/min/kg
CLHEP, human [1]: 15.2 mL/min/kg
CLint scaled [1]: 20.1 mL/min/kg
IC50 (CYP450s (panel)): < 10 µM
clearance [2]: 9 mL/min/kg
SMILES: Cc1nnc2sc(C(=O)NCc3ccc(-c4ccncc4)cc3)c(N)c2c1C [8f]

CLHEP, rat (In vitro clearance, rat): 31.5 mL/min/kg
CLint scaled (In vitro clearance, rat): 57.1 mL/min/kg
CLHEP, human [1]: 17.8 mL/min/kg
CLint scaled [1]: 19.6 mL/min/kg
clearance [2]: 3.6 mL/min/kg
SMILES: Cc1nnc2sc(C(=O)NCc3ccc(-c4ccnc(F)c4)cc3)c(N)c2c1C [8k]

CLHEP, rat (In vitro clearance, rat): 37.7 mL/min/kg
CLint scaled (In vitro clearance, rat): 81.6 mL/min/kg
CLHEP, human [1]: 17.1 mL/min/kg
CLint scaled [1]: 20.2 mL/min/kg
clearance [2]: 1.7 mL/min/kg
SMILES: Cc1nnc2sc(C(=O)NCc3ccc(-c4ccc(F)nc4)cc3)c(N)c2c1C [8m]

SMILES: Cc1nnc2sc(C(=O)NCc3ccc(-c4cccnc4F)cc3)c(N)c2c1C [8p, 5-amino-N-(4-(2-fluoropyridine-3-yl)benzyl)-3,4-dimethylthieno[2,3-c] pyridazine-6-carboxamide]
α at cyno M4 (cyno M4): 28.2
β at cyno M4 (cyno M4): 2.5
EC50 (rat M1-3,5): > 30 µM
EC50 (human M1-3,5): > 30 µM
activity at dog M2 (dog M2): inactive
activity at cyno M2 (cyno M2): inactive
GABAA functional assay activity (GABAA receptor): no activity
mini-Ames mutagenicity (TA98 and TA100 strains): negative
CYP 1A2/2B6/3A4 induction Emaxs (CYP 1A2/2B6/3A4): < 2
EC50 at 48 h (CYP1A2, CYP2B6, CYP3A4): > 50 µM
CLHEP, rat (In vitro clearance, rat): 46.0 mL/min/kg
predicted rat CLhep, revised prediction method (In vitro clearance, rat; inclusion of binding terms in the well-stirred model): 0.49 mL/min/kg
CLint scaled (In vitro clearance, rat): 134 mL/min/kg
CLHEP, human [1]: 14.8 mL/min/kg
CLint scaled [1]: 19.2 mL/min/kg
IC50 (CYP450s (panel)): ≥ 11 µM
clearance [2]: 1.6 mL/min/kg
oral bioavailability ([3]; 10 mg/kg solution dose): 61 % F
oral bioavailability ([3]; HCl salt of 8p dosed as a suspension): 54 %F
oral bioavailability ([4]; 3 mg/kg suspension dose of the HCl salt): 47 %F
clearance ([4]; plasma, iv): 5.5 mL/min/kg
oral bioavailability ([5]; 10 mg/kg solution dose of HCl salt): 4.7 %F
clearance ([5]; plasma, iv): 9.3 mL/min/kg
human unique metabolites ([6]; cryopreserved hepatocytes, multiple species): no evidence for human unique metabolites
turnover in cryopreserved hepatocytes ([6]; rat, dog, cynomolgus monkey, human hepatocytes): low turnover
CYPs contributing to metabolism (CYP450): 3A4 (predominant), 2D6, 2C19, 2C9 and 1A2
GSH conjugates [7]: no significant levels of GSH conjugates
dyskinesia scores and involuntary movements [8]: significantly reduces dyskinesia scores and involuntary movements
deficits in synaptic plasticity and behavior [9]: ameliorates deficits in synaptic plasticity and behavior
